Where two headings read alike, the source gives them in different places.
Legend:
[1] = biological target: T1, human muscarinic M4 receptor (Homo sapiens, UniProt P08173); test: Alphascreen Surefire phospho-ERK1/2 functional assay, M4; assay type: cell-based; details: for EC50 / % Emax cf. ACh (M4) / pEC50 M4: CHO cells stably expressing human M4; for EC50 / pEC50 M4: agonist 5 min, 37° C.; for EC50: read-out: pEC50 M4 (converted); for Emax: CHO, read-out: % Emax cf. ACh (M4), CHO cells stably expressing human M4; for Emax / % Emax cf. ACh (M4): Emax relative to ACh
T1 construct: expressed in transfected cells
T1 sequence (P08173 1-479): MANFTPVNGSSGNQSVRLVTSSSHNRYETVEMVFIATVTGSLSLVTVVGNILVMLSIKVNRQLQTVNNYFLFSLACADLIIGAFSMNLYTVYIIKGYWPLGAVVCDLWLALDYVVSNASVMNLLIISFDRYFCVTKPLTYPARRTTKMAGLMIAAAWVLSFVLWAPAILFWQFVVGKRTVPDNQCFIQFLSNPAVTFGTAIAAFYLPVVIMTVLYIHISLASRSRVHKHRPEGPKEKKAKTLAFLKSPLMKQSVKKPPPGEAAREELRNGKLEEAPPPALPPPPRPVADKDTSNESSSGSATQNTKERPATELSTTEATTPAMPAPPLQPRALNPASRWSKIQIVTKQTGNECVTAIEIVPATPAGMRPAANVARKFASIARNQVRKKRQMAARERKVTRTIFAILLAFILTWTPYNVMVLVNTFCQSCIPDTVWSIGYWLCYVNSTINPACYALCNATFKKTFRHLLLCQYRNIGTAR
Protocol: (§1) ERK1/2 phosphorylation is a downstream consequence of both Gq/11 and Gi/o protein coupled receptor activation, making it highly suitable for the assessment of M1, M3 (Gq/11 coupled) and M2, M4 receptors (Gi/o coupled), rather than using different assay formats for different receptor subtypes. CHO cells stably expressing the human muscarinic M1, M2, M3 or M4 receptor were plated (25K/well) onto 96-well tissue culture plates in MEM-alpha+10% dialysed FBS. Once adhered, cells were serum-starved overnight. Agonist stimulation was performed by the addition of 5 μL agonist to the cells for 5 min (37° C.). Media was removed and 50 μL of lysis buffer added. After 15 min, a 4 μL sample was transferred to 384-well plate and 7 μL of detection mixture added. […]

[2] = biological target: T2, human muscarinic M1 receptor (Homo sapiens, UniProt P11229); test: Alphascreen Surefire phospho-ERK1/2 functional assay, M1; assay type: cell-based; details: for EC50 / pEC50 M1: agonist 5 min, 37° C.; for Emax: CHO, read-out: % Emax cf. ACh (M1), CHO cells stably expressing human M1; for Emax / % Emax cf. ACh (M1): Emax relative to ACh
T2 sequence (P11229 1-460): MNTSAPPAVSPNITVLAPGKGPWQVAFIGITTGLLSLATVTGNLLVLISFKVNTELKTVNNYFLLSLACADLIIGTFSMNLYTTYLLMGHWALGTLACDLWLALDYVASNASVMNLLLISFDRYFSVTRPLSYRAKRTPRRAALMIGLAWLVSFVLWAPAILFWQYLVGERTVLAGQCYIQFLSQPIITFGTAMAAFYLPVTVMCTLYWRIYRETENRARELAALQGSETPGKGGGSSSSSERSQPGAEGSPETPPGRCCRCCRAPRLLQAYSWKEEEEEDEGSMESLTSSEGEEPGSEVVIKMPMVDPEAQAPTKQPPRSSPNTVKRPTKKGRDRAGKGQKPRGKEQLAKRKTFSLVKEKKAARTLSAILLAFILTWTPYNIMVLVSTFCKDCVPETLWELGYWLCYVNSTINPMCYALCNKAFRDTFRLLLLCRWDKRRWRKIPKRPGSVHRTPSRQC
Protocol: as §1

[3] = CHO cells stably expressing human M1, read-out: pEC50 M1 (converted)
[4] = CHO cells stably expressing human M1
[5] = pEC50 M1, CHO cells stably expressing human M1

Row | SMILES | EC50 [1] | Emax [1] | EC50 [2, 3] | Emax [2] | % Emax cf. ACh (M4) [1] | % Emax cf. ACh (M1) [2, 4] | pEC50 M1 [2, 4] | pEC50 M4 [1] | EC50 [2, 5]
1 | Cc1noc(N2CC3(CCC(N4CCC(n5cccn5)CC4)C3)C2)n1 (single isomer, unassigned) [3-1 Isomer 2] | 1230 nM | 68% | 8320 nM | 58% | – | – | – | – | –
2 | Cc1noc(N2C3CCC2CC(N2CCC4(CC2)CNC(=O)C4)C3)n1 (single isomer, unassigned) [6-2 Isomer 1] | > 20000 nM | – | – | – | (9) % | (34) % | – | – | 158 nM
3 | Cc1noc(N2C3CCC2CC(N2CCC(C(=O)NC4(C(F)(F)F)CCC4)CC2)C3)n1 (single isomer, unassigned) [12-7 Isomer 2] | 2000 nM | 109% | 537 nM | 109% | – | – | – | – | –
4 | Cc1noc(N2CCCC(N3CCC4(CC3)CNC(=O)O4)CC2)n1 (racemic) [10-3 Racemic mixture] | > 20000 nM | 10% | 372 nM | 97% | – | – | – | – | –
5 | Cc1noc(N2C3CCC2CC(N2C[C@@H]4[C@H](C2)[C@H]4C(=O)NC2(C)CCC2)C3)n1 (single isomer, unassigned; isomer 2) [12-13 Isomer 2] | – | – | – | – | (69) % | (102) % | 6.48 | 6.09 | –
6 | Cc1noc(N2CCCC(N3CCC4(CC3)CNC(=O)C4)CC2)n1 (single isomer, unassigned) [10-2 Isomer 2] | – | – | 490 nM | – | (15) % | (53) % | – | <4.70 | –
7 | Cc1noc(N2C3CCCC2CC(N2CCC(n4cccn4)CC2)C3)n1 (single isomer, unassigned) [8-1 Isomer 2] | 1260 nM | 38% | > 20000 nM | 24% | – | – | – | – | –
8 | Cc1noc(N2C3CCCC2CC(N2CCC(C(=O)NC4(C)CCC4)CC2)C3)n1 (single isomer, unassigned) [8-4 Isomer 1] | 646 nM | 76% | 575 nM | 98% | – | – | – | – | –
9 | Cc1noc(N2C3CCC2CC(N2CCC4(CC2)CNC(=O)C4)C3)n1 (single isomer, unassigned) [6-2 Isomer 2] | 170 nM | – | – | – | (39) % | (81) % | – | – | 63.1 nM
10 | CCC1NC(=O)OC12CCN(C1CCCN(c3nc(C)no3)CC1)CC2 (single isomer, unassigned) [10-4 Isomer 1] | 100 nM | – | 676 nM | – | (85) % | (123) % | – | – | –
11 | CC1(NC(=O)C2CCN(C3CC4CCC(C3)N4c3nc(C(F)(F)F)no3)CC2)CCC1 (single isomer, unassigned) [12-14 Isomer 1] | > 20000 nM | – | – | – | (6) % | (47) % | – | – | 912 nM
12 | Cc1noc(N2CC3CC(C2)C3N2CCC(n3cccn3)CC2)n1 (single isomer, unassigned) [5-1 Isomer 1] | 1260 nM | 55% | > 20000 nM | 9% | – | – | – | – | –
13 | Cc1noc(N2C3CCCC2CC(N2CCC4(CC2)CNC(=O)C4)C3)n1 (single isomer, unassigned) [8-2 Isomer 1] | > 20000 nM | 9% | 214 nM | 30% | – | – | – | – | –
14 | CNC(=O)N1CCC[C@H]1C1CCN(C2CCCN(c3nc(C)no3)CC2)CC1 (single isomer, unassigned) [10-12 Isomer 2] | 55 nM | – | – | – | (119) % | (24) % | <4.70 | – | –
15 | CCC1NC(=O)OC12CCN(C1CCCN(c3nc(C)no3)CC1)CC2 (single isomer, unassigned) [10-4 Isomer 2] | 23.4 nM | – | 55 nM | – | (64) % | (58) % | – | – | –
16 | CCOC(=O)[C@H]1[C@@H]2CN(C3CC4(CCN(c5nc(C)no5)C4)C3)C[C@@H]21 (single isomer, unassigned) [2-3 Isomer 2] | 513 nM | 32% | > 20000 nM | 9% | – | – | – | – | –
17 | Cc1noc(N2CCC(N3CCC(n4cccn4)CC3)CC2)n1 [Example 4-1, 1′-(3-Methyl-1,2,4-oxadiazol-5-yl)-4-(1H-pyrazol-1-yl)-1,4′-bipiperidine] | 1000 nM | 85% | ≥ 20000 nM | 50% | – | – | – | – | –
18 | Cc1noc(N2C3CCC2CC(N2CCC(C(=O)NC4(C)CCCC4)CC2)C3)n1 (single isomer, unassigned) [12-11 Isomer 2] | 2690 nM | 83% | 661 nM | 103% | – | – | – | – | –
19 | Cc1noc(N2CC3(CC(N4CCC(n5cccn5)CC4)C3)C2)n1 [Example 1-1, 2-(3-Methyl-1,2,4-oxadiazol-5-yl)-6-[4-(1H-pyrazol-1-yl)piperidin-1-yl]-2-azaspiro[3.3]heptane] | 513 nM | 77% | 10200 nM | 48% | – | – | – | – | –
20 | CCC1NC(=O)OC12CCN(C1CCCN(c3nc(C)no3)CC1)CC2 (single isomer, unassigned) [10-4 Isomer 4] | 871 nM | – | > 20000 nM | – | (36) % | (18) % | – | – | –
21 | Cc1noc(N2CC3CC(N4CCC(n5cccn5)CC4)CC2C3)n1 (single isomer, unassigned) [11-1 Isomer 2] | 1050 nM | 69% | 3160 nM | 48% | – | – | – | – | –
22 | Cc1noc(N2C3CCC2CC(N2CCC(C(=O)NCC4(C)CCC4)CC2)C3)n1 (single isomer, unassigned) [12-12 Isomer 2] | 209 nM | 107% | – | 80% | – | – | – | – | 3.72 nM

The next lines start with results.

Row | EC50 [1] | Emax [1] | EC50 [2, 3] | Emax [2] | % Emax cf. ACh (M4) [1] | % Emax cf. ACh (M1) [2, 4] | pEC50 M1 [2, 4] | pEC50 M4 [1] | SMILES | EC50 [2, 5]
23 | 129 nM | 73% | 1350 nM | 32% | – | – | – | – | Cc1noc(N2CCCC(N3CCC(n4cccn4)CC3)CC2)n1 (single isomer, unassigned) [10-1 Isomer 1] | –
24 | 1450 nM | – | – | – | (52) % | (3) % | <4.70 | – | Cc1noc(N2CCCC(N3CCC(N4CCCC4c4cnn(C)c4)CC3)CC2)n1 (single isomer, unassigned) [10-10 Isomer 2a] | –
25 | 93.3 nM | 91% | 676 nM | 37% | – | – | – | – | Cc1noc(N2CCCC(N3CCC(N4CC(F)(F)C[C@@H]4CO)CC3)CC2)n1 (single isomer, unassigned) [10-8 Isomer 1] | –
26 | 219 nM | 101% | 3980 nM | 56% | – | – | – | – | CCN(C(C)=O)C1CCN(C2CCCN(c3nc(C)no3)CC2)CC1 (racemic) [10-11 Racemic mixture] | –
27 | 479 nM | 56% | 1320 nM | 53% | – | – | – | – | CC[C@H]1CCC(=O)N1C1CCN(C2CCCN(c3nc(C)no3)CC2)CC1 (single isomer, unassigned) [10-9 Isomer 2] | –
28 | 398 nM | – | 4270 nM | – | (76) % | (70) % | – | – | Cc1noc(N2CCCC(N3CCC(N4C[C@H](F)C[C@@H]4CO)CC3)CC2)n1 (single isomer, unassigned) [10-7 Isomer 2] | –
29 | 316 nM | – | – | – | (72) % | (14) % | <4.70 | – | Cc1noc(N2CCCC(N3CCC(N4CCCC4c4cnn(C)c4)CC3)CC2)n1 (single isomer, unassigned) [10-10 Isomer 2b] | –
30 | 309 nM | 100% | > 20000 nM | 22% | – | – | – | – | CNC(=O)N1CCC[C@H]1C1CCN(C2CCCN(c3nc(C)no3)CC2)CC1 (single isomer, unassigned) [10-12 Isomer 1] | –
31 | 513 nM | 56% | > 20000 nM | – | – | (6) % | – | – | Cc1noc(N2CCCC(N3CCC(N4CCCC4c4cnn(C)c4)CC3)CC2)n1 (single isomer, unassigned) [10-10 Isomer 1b] | –
